Experimental data taken from patent publication US8765949B2, “CCR2 receptor antagonists and uses thereof” (Boehringer Ingelheim International GmbH, priority 2009, dated 2014).

molecular target: T1, CCR2 (Homo sapiens, UniProt P41597); experiment: CCR2 receptor membrane binding assay ([125I]MCP-1, THP-1 membranes, SPA beads); details: dissociation constant hKi; THP-1 cell membranes, [125I]MCP-1, bound radioactivity after 8 h
T1 construct: Membranes were prepared from THP-1 cells; endogenous in cells; host or cells: THP-1 (human acute monocytic leukaemia cells), membrane preparation
T1 sequence (P41597 1-360 isoform P41597-2): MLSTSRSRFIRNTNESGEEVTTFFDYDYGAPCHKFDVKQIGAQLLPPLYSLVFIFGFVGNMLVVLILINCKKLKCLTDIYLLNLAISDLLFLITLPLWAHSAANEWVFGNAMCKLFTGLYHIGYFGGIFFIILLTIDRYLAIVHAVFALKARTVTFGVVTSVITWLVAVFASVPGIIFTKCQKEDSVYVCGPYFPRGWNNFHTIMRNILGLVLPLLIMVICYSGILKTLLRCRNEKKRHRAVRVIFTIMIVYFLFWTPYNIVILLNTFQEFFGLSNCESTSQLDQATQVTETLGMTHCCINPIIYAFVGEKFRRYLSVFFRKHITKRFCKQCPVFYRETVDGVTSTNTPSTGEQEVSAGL
Method: The above exemplary substances have been tested for binding to CCR2 using a binding assay as outlined herein below:
THP-1 cells (human acute monocytic leukaemia cells) were cultured under standardized conditions at 37° C. and 5% CO2 in a humidified incubator. THP-1 cells were cultivated in RPMI 1640 medium (Gibco 21875) containing 1% MEM-NEAA (Gibso 11140) 2 mM L-glutamine, 1.5 g/L sodium bicarbonate, 4.5 g/L glucose, 10 mM HEPES and 1.0 mM sodium pyruvate, 90%; 10% fetal calf serum (FCS Gibco 10500-064).
Membranes were prepared from THP-1 cells. THP-1 cells were centrifuged at 300×g at 4° C. for 10 min. The cell pellet was resuspendet in Phosphate Buffer Saline (PBS, including 10 μM Pefabloc and a protease inhibitor mix ‘complete’, Boehringer Mannheim (1 tablet/50 ml)), to a concentration of […]. The membrane preparation was performed by disrupting the cells by nitrogen […] (at 50 bar, for 1 h) in a “Nitrogen Bombe” (Parr Instrument). Cell debris was removed by centrifugation (800×g at 4° C., 1 min). The supernatant was centrifuged at 80000×g, 4° C. for 30 min to sediment the cell membranes. Usually 50 mg of protein (Bradford assay) were yielded from 1×10E9 cells. The membranes were resuspendet in 25 mM HEPES, 25 mM MgCl2, 1 mM CaCl2, 10% Glycerine for storage in aliquots at −80° C. in 25 mM HEPES, 25 mM MgCl2, 1 mM CaCl2, 10% Glycerine and stored at −80° C.
Receptor Membrane Binding Assay:
Perkin Elmer NEX 332 Jod 125 MCP-1, Stock: 2200 Ci/mmol solved in 2000 μl assay buffer, stored at −20° C. THP-1 membrane were adjusted with 25 mM HEPES, pH 7.2; 5 mM MgCl2; 0.5 mM CaCl2; 0.2% BSA assay buffer to a concentration of 2.5 μg/15 μl. Amersham Biosciences PVT-WGA Beads (RPNQ0001) were adjusted with assay buffer to a concentration of 0.24 mg/30 μl. For preparation of the membrane-bead-suspension membranes and beads were incubated for 30 min at RT under rotation (60 rpm) with a ratio of 1:2. Test compounds dissolved in 100% DMSO to a concentration of 10 mM and are further diluted with 100% DMSO to 1 mM. All additional compound dilutions were obtained with assay buffer, final 1% DMSO. Compounds, membrane-bead-suspension and [125I]MCP-1 (ca. 25000 cpm/10 μl) were incubated. Bound radioactivity was determined by scintillation counter after 8 h. Determination of affinity of test compounds (dissociation constant hKi) is calculated by iterative fitting of experimental data using the “easy sys” program, which is based on law of mass action (Schittkowski K. (1994), Numerische Mathematik, Vol. 68, 129-142).

Row | SMILES | Ki [nM]
1 | Cc1c(NC[C@H]2CCC[C@@H](c3ccc(OC(F)(F)F)cc3)O2)ncnc1C(=O)N1CCC(N[C@H]2CCOC[C@H]2F)CC1 [Example 53aj] | 0.7
2 | Cc1ccc([C@@H]2CCC[C@H](CNc3ncnc(C(=O)N4CCC(N5CCC6(CC5)Cc5ccccc5O6)CC4)c3C)O2)cc1 [Example 53x] | 9
3 | COc1cc(NC[C@H]2CCC[C@@H](c3ccc(C)cc3)O2)cc(C(=O)N2CCC(N[C@H]3CCOC[C@H]3OC)CC2)n1 [Example 28n] | 38
4 | Cc1cccc([C@H]2CCC[C@@H](CNc3nc(C)nc(C(=O)N4CCC(N5CCC(N(C)S(C)(=O)=O)CC5)CC4)c3C)O2)c1 [Example 28] | 658
5 | CO[C@@H]1COCC[C@@H]1NC1CCN(C(=O)c2nc(C)nc(NC[C@H]3CCC[C@@H](c4cccc(C)c4)O3)c2C)CC1 [Example 51] | 8
6 | CO[C@@H]1COCC[C@@H]1NC1CCN(C(=O)c2ccnc(NC[C@H]3CCC[C@@H](c4ccc(C)cc4)O3)c2C)CC1 [Example 53a] | 7
7 | CO[C@H]1COCC[C@H]1NC1CCN(C(=O)c2ncnc(NC[C@H]3CCC[C@@H](c4ccc(SC(F)(F)F)cc4)O3)c2C)CC1 [Example 53al] | 0.4
8 | CO[C@@H]1COCC[C@@H]1NC1CCN(C(=O)c2ncnc(NC[C@@H]3CCC[C@H](c4ccc(Cl)cc4)O3)c2C)CC1 [Example 43] | 39
9 | CO[C@@H]1COCC[C@@H]1NC1CCN(C(=O)c2ncnc(NC[C@@H]3CCC[C@H](c4ccc(C(F)(F)F)cc4)O3)c2C)CC1 [Example 37] | 25
10 | Cc1c(NC[C@@H]2CCC[C@H](c3ccc(Cl)cc3)O2)ncnc1C(=O)N1CCC(N2CCC(N(C)S(C)(=O)=O)CC2)CC1 [Example 6] | 190
11 | CO[C@H]1COCC[C@H]1NC1CCN(C(=O)c2cc(NC[C@H]3CCC[C@@H](c4ccc(C(F)(F)F)cc4)O3)ncn2)CC1 [Example 28k] | 3
12 | CO[C@H]1COCC[C@H]1NC1CCN(C(=O)c2cc(NC[C@H]3CCC[C@@H](c4ccc(OC(F)(F)F)cc4)O3)ncn2)CC1 [Example 28l] | 2
13 | Cc1ccc(C2CCC[C@H](CNc3ncnc(C(=O)N4CCC(N5CCC(c6cccc(C(=O)O)c6)CC5)CC4)c3C)O2)cc1 (some centres unmarked) [Example 56] | 802
14 | Cc1c(NC[C@@H]2CCC[C@H](c3ccccc3)O2)ncnc1C(=O)N1CCC(N2CCC(N(C)S(C)(=O)=O)CC2)CC1 (single isomer, unassigned) [Example 12] | 27
15 | Cc1c(NC[C@H]2CCC[C@@H](c3ccc(C(F)(F)F)cc3)O2)ncnc1C(=O)N1CCC(N2CCC(N(C)S(C)(=O)=O)CC2)CC1 [Example 24] | 4
16 | CO[C@@H]1COCC[C@@H]1NC1CCN(C(=O)c2ncnc(NC[C@@H]3CCC[C@H](c4ccccc4)O3)c2C)CC1 [Example 39] | 287
17 | Cc1c(NC[C@H]2CCC[C@@H](c3ccc(OC(F)(F)F)cc3)O2)ncnc1C(=O)N1CCC(N2CCC(N(C)S(C)(=O)=O)CC2)CC1 [Example 26] | 6
18 | Cc1c(NC[C@@H]2CCC[C@H](c3ccc(C(C)(C)C#N)cc3)O2)ncnc1C(=O)N1CCC(N2CCC(N(C)S(C)(=O)=O)CC2)CC1 [Example 28f] | 78
19 | COc1nc(NC[C@H]2CCC[C@@H](c3ccc(C)cc3)O2)c(C)c(C(=O)N2CCC(N[C@@H]3CCOC[C@@H]3OC)CC2)n1 [Example 53z] | 3
20 | CO[C@H]1COCC[C@H]1NC1CCN(C(=O)c2ncnc(NC[C@H]3CCC[C@@H](c4ccc(Cl)cc4)O3)c2C)CC1 [Example 42] | 8
21 | CO[C@@H]1COCC[C@@H]1NC1CCN(C(=O)c2ncnc(NC[C@@H]3CCC[C@H](c4cccc(C(F)(F)F)c4)O3)c2C)CC1 [Example 45] | 6
22 | CO[C@@H]1COCC[C@@H]1NC1CCN(C(=O)c2cc(NC[C@H]3CCC[C@@H](c4ccc(OC(F)(F)F)cc4)O3)nc(C(F)(F)F)n2)CC1 [Example 53l] | 0.5

Row | SMILES | Ki [nM]
23 | CO[C@H]1COCC[C@H]1NC1CCN(C(=O)c2ncnc(NC[C@@H]3CCC[C@H](c4ccc(OC(F)(F)F)cc4)O3)c2C)CC1 [Example 53c] | 98
24 | Cc1c(NC[C@H]2CCC[C@@H](c3ccccc3)O2)ncnc1C(=O)N1CCC(N2CCC(N(C)S(C)(=O)=O)CC2)CC1 [Example 11] | 53
25 | Cc1ccc(C2CCC[C@H](CNc3ncnc(C(=O)N4CCC(N5CCCC(c6cccc(C(=O)O)c6)C5)CC4)c3C)O2)cc1 (some centres unmarked) [Example 57] | 1800
26 | COc1nc(NC[C@H]2CCC[C@@H](c3ccccc3)O2)c(C)c(C(=O)N2CCC(N[C@@H]3CCOC[C@@H]3OC)CC2)n1 [Example 53af] | 8
27 | CO[C@H]1COCC[C@H]1N(C)C1CCN(C(=O)c2ncnc(NC[C@H]3CCC[C@@H](c4ccc(C)cc4)O3)c2C)CC1 [Example 54] | 28
28 | COc1nc(NC[C@H]2CCC[C@@H](c3ccc(C(F)(F)F)cc3)O2)cc(C(=O)N2CCC(N[C@@H]3CCOC[C@@H]3OC)CC2)n1 [Example 53o] | 1
29 | CO[C@H]1COCC[C@H]1NC1CCN(C(=O)c2ncnc(NC[C@H]3CCC[C@@H](c4ccc(C(F)(F)F)cc4)O3)c2C)CC1 [Example 53] | 2
30 | CO[C@@H]1COCC[C@@H]1NC1CCN(C(=O)c2ncnc(NC[C@H]3CCC[C@@H](c4cccc(C)c4)O3)c2C)CC1 [Example 49] | 4
31 | Cc1ccc([C@@H]2CCC[C@H](CNc3cc(C(=O)N4CCC(N5CCC(N(C)S(C)(=O)=O)CC5)CC4)ncn3)O2)cc1 [Example 28g] | 8
32 | CO[C@@H]1COCC[C@@H]1NC1CCN(C(=O)c2ncnc(NC[C@H]3CCC[C@@H](c4ccc(C)cc4)O3)c2C)CC1 [Example 29] | 4
33 | Cc1c(NC[C@@H]2CCC[C@H](c3cccc(C(F)(F)F)c3)O2)ncnc1C(=O)N1CCC(N2CCC(N(C)S(C)(=O)=O)CC2)CC1 [Example 7] | 36
34 | COc1nc(NC[C@H]2CCC[C@@H](c3ccc(OC(F)(F)F)cc3)O2)c(C)c(C(=O)N2CCC(N[C@H]3CCOC[C@H]3OC)CC2)n1 [Example 53ae] | 0.4
35 | Cc1ccc([C@H]2CCC[C@@H](CNc3ncnc(C(=O)N4CCC(N5CCC6(CC5)CC(C(=O)O)c5ccccc56)CC4)c3C)O2)cc1 (some centres unmarked) [Example 60] | 733
36 | CO[C@@H]1COCC[C@@H]1NC1CCN(C(=O)c2ncnc(NC[C@@H]3CCC[C@H](c4cccc(C)c4)O3)c2C)CC1 [Example 33] | 148
37 | CO[C@@H]1COCC[C@@H]1NC1CCN(C(=O)c2cc(NC[C@H]3CCC[C@@H](c4ccc(C)cc4)O3)nc(C(F)(F)F)n2)CC1 [Example 53i] | 2
38 | CO[C@H]1COCC[C@H]1NC1CCN(C(=O)c2nc(C)nc(NC[C@H]3CCC[C@@H](c4cccc(C)c4)O3)c2C)CC1 [Example 50] | 9
39 | CO[C@@H]1COCC[C@@H]1NC1CCN(C(=O)c2ncnc(NC[C@H]3CCC[C@@H](c4ccc(SC(F)(F)F)cc4)O3)c2C)CC1 [Example 53am] | 0.3
40 | CO[C@@H]1COCC[C@@H]1NC1CCN(C(=O)c2cc(NC[C@H]3CCC[C@@H](c4ccc(C(F)(F)F)cc4)O3)nc(C(F)(F)F)n2)CC1 [Example 53t] | 0.4
41 | Cc1cccc([C@@H]2CCC[C@H](CNc3ncnc(C(=O)N4CCC(N5CCC(N(C)S(C)(=O)=O)CC5)CC4)c3C)O2)c1 [Example 21] | 11
42 | CO[C@@H]1COCC[C@@H]1NC1CCN(C(=O)c2cc(NC[C@H]3CCC[C@@H](c4ccc(C(F)(F)F)cc4)O3)ncn2)CC1 [Example 28j] | 1
43 | Cc1c(NC[C@H]2CCC[C@@H](c3cccc(C(F)(F)F)c3)O2)ncnc1C(=O)N1CCC(N2CCC(N(C)S(C)(=O)=O)CC2)CC1 [Example 8] | 185
44 | Cc1c(NCC2CCCC(c3ccc(Cl)cc3)O2)ncnc1C(=O)N1CCC(N2CCC(N(C)S(C)(=O)=O)CC2)CC1 (centres unmarked) [Example 15] | 24
